# Results taken from patent US20250214986A1, “P2X3 INHIBITOR COMPOUND, SALT THEREOF, POLYMORPH THEREOF AND USE THEREOF” (HUMANWELL HEATHCARE (GROUP) CO., LTD., priority 2022, published 2025).
# Key:
# [1] = Pharmacokinetic assay in mice; format: in vivo, male ICR mice; details: for AUC(0-t) / Cmax / Tmax / half-life: male, ICR, mouse, plasma, mice, oral intragastric administration, 10 mg/kg; for half-life: read-out: T½ (converted)
# Protocol: Pharmacokinetic assay in mice was performed, wherein the mice used were male ICR mice weighing 20-25 g and fasted overnight. 3 mice were taken and given the compound by oral intragastric administration at 10 mg/kg, and blood was collected before administration and at 15 min, 30 min, 1 h, 2 h, 4 h, 8 h, and 24 h after administration. The blood samples were centrifuged at 6800 g at 2-8° C. for 6 min, and plasma was collected and stored at −80° C. […] The mixture was vortexed for 1 min and then centrifuged at 13000 rpm at 4° C. for 10 min. The supernatant was taken, and 3 times its amount of water was added for mixing. A proper amount of the resulting mixture was taken for LC-MS/MS analysis. The major pharmacokinetic parameters were analyzed using a non-compartmental model in the WinNonlin 7.0 software.
# [2] = test system: taste of SD rats; assay: Taste assay in rats (water vs. aqueous quinine intake); format: in vivo; details: 30 mg/kg, i.p., 0.3 mM aqueous quinine, 15 min intake half an hour after administration
# Protocol: After 3 days of overnight water-deprivation training, SD rats were subjected to administration with the compound. Half an hour after administration, each animal was given one bottle of water and one bottle of 0.3 mM aqueous quinine solution. The water bottles were removed after 15 min, and the intake of water and the intake of 0.3 mM aqueous quinine solution by the rats were measured separately. The effect of the compound on the taste of SD rats was assessed based on the difference between the water intake and the aqueous quinine solution intake (FIG. 41).
# [3] = test system: citric acid/histamine-stimulated cough model; assay: Cough efficacy assay of histamine/citric acid in guinea pigs; format: in vivo; details: for Cough inhibition rate vs. vehicle (%) / Mean number of coughs within 15 min: histamine/citric acid nebulization, intranasal instillation
# Protocol: (§1) Before enrollment, the animals were acclimatized for 3-7 days. Once their body weight reached the standard (300-400 g), they were numbered and randomly grouped. 0.25-24 h before the start of the cough assessment, the compound or excipient was administered to the guinea pigs via intranasal instillation. The dose range for the administration of the test substance was 0.17-1.5 mg/kg. During the cough assessment, after the animals were acclimated in a whole-body plethysmography box, they were given histamine nebulization, followed by citric acid nebulization. The number of coughs and the cough latency of the animals were recorded within 22 min from the start of the histamine nebulization until the end of the observation period. For the statistics of experimental data, the one-way ANOVA method was used to analyze and compare the data of the groups. Statistical analysis results with p<0.05 were considered to indicate significant differences. Pairwise comparisons were performed using the t-test method to assess differences.
# [4] = test system: citric acid/ATP-stimulated cough model; assay: Cough efficacy assay of ATP/citric acid in guinea pigs; format: in vivo; details: for Cough inhibition rate vs. vehicle (%) / Mean number of coughs within 15 min: ATP/citric acid nebulization, intranasal instillation
# Protocol: as §1, with “ATP” for “histamine”, “and after a few minutes, they were given” for “followed by”, “15” for “22”, “citric acid nebulization. The” for “histamine nebulization until the end of the observation period. For the statistics of experimental data, the”
# [5] = Dynamic solubility experiment at 37° C.; format: physicochemical
# Protocol: In the test, the purity, dynamic solubility and stability were tested using an Agilent 1260 high-performance liquid chromatograph, the molar ratio of salt-forming ions was tested using ion chromatography, and the analytical conditions are shown in Tables A-4 and A-5 below.
# Solids at a feeding concentration of 10 mg/mL (calculated based on free base) were rotationally mixed with corresponding vehicles at 37° C. […] After sampling at each time point, the samples were centrifuged (at 10000 rpm) and filtered (through a 0.45 μm PTFE filter head). The HPLC concentrations and pH values of the filtrates were determined.
# 100.2 mg of NaCl and 50.3 mg of Triton X-100 were weighed into a 50 mL volumetric flask and then completely dissolved by addition of purified water. 816 μL of 1 M hydrochloric acid was added, and the pH was adjusted to 1.8 with 1 M hydrochloric acid or 1 M NaOH solution. The mixed solution was brought to the volume by addition of purified water.
# 170.5 mg of anhydrous NaH2PO4, 22.2 mg of NaOH, and 310.9 mg of NaCl were weighed into a 50 mL volumetric flask and then completely dissolved by addition of purified water. The pH was adjusted to 6.5 with 1 M hydrochloric acid or 1 M NaOH solution. The mixed solution was brought to the volume by addition of purified water. Subsequently, 55.1 mg of SIF powder was weighed into a 25 mL volumetric flask and completely dissolved with the above solution, and the mixed solution was brought to the volume.
# 0.21 mL of glacial acetic acid, 101.6 mg of NaOH, and 295.4 mg of NaCl were added into a 25 mL volumetric flask and then completely dissolved by addition of about 20 mL of purified water. The pH was adjusted to 5.0 with 1 M hydrochloric acid or 1 M NaOH solution. The mixed solution was brought to the volume by addition of purified water, and then 280.8 mg of SIF powder was weighed into the flask and completely dissolved.
# [6] = Hygroscopicity by dynamic vapor sorption (DVS); format: physicochemical
# Protocol: Dynamic vapor sorption (DVS) curves were acquired on a DVS IntrInsic from Surface Measurement Systems (SMS). The relative humidity at 25° C. was corrected with the deliquescence points of LiCl, Mg(NO3)2, and KCl.
# Starting at 0% RH, the test acquired the percentage changes in mass of the samples when the humidity changed (0% RH to 95% RH to 0% RH) at a constant temperature of 25° C.
# [7] = Solid state stability (XRPD and HPLC); format: physicochemical
# Protocol: In the test, the purity, dynamic solubility and stability were tested using an Agilent 1260 high-performance liquid chromatograph, the molar ratio of salt-forming ions was tested using ion chromatography, and the analytical conditions are shown in Tables A-4 and A-5 below. [table]
# [8] = Competitive suspension tests of free base crystalline forms A/B; format: physicochemical
# Protocol: In order to confirm the thermodynamic transformation relationship between the anhydrous free base crystalline forms A and B under different temperature conditions, competitive suspension tests in n-heptane and toluene at room temperature and 50° C. were set up.
# [9] = citric acid/histamine-stimulated cough model
# [10] = citric acid/ATP-stimulated cough model
# [11] = 25° C./60% RH/uncovered, 1 month
# [12] = 25° C./60% RH/uncovered, 1 week
# [13] = 40° C./75% RH/uncovered, 1 month
# [14] = 40° C./75% RH/uncovered, 1 week
smiles,measurement,setting,value
"Cc1cnc(-c2cc(O[C@@H](C)[C@@H](C)O)cc(C(=O)N[C@H](C)c3cnc(C(F)(F)F)nc3)c2F)s1 [Compound of formula I, 2-fluoro-5-(((2S,3R)-3-hydroxybutan-2-yl)oxy)-3-(5-methylthiazol-2-yl)-N—((R)-1-(2-(trifluoromethyl)pyrimidin-5-yl)ethyl)benzamide]",AUC(0-t),[1],15000 ng·h/mL
same,Cmax,[1],3380 ng/mL
same,Tmax,[1],0.5 h
same,half-life,[1],2.89 h
same,pharmacokinetic properties compared to the control compounds 1 and 2,[1]; mouse model,certain improvements in their pharmacokinetic properties
same,Water/aqueous quinine solution intake ratio,[2],29.4
same,cough latency,[3]; [9],prolonged the cough latency
same,number of coughs compared to control compound 1,[3]; [9],significantly reduced the number of coughs
same,Cough inhibition rate vs. vehicle (%),[3],66.5%
same,Mean number of coughs within 15 min,[3],8.9
same,Cough inhibition rate vs. vehicle (%),[4],68.2%
same,Mean number of coughs within 15 min,[4],6.3
same,cough latency,[4]; [10],prolonged the cough latency
same,number of coughs compared to control compound 1,[4]; [10],significantly reduced the number of coughs
"Cc1cnc(-c2cc(O[C@@H]3CCOC3)cc(C(=O)N[C@H](C)c3cnc(C(F)(F)F)nc3)c2)s1 [Control compound 1, reference compound]",AUC(0-t),[1],5200 ng·h/mL
same,Cmax,[1],1250 ng/mL
same,Tmax,[1],0.5 h
same,half-life,[1],2.41 h
same,Cough inhibition rate vs. vehicle (%),[3],57.1%
same,Mean number of coughs within 15 min,[3],11.4
same,Cough inhibition rate vs. vehicle (%),[4],59.1%
same,Mean number of coughs within 15 min,[4],8.1
"Cc1cnc(-c2cc(O[C@@H](C)[C@@H](C)O)cc(C(=O)N[C@H](C)c3cnc(C(F)(F)F)nc3)c2F)s1 [Free base crystalline form A, 2-fluoro-5-(((2S,3R)-3-hydroxybutan-2-yl)oxy)-3-(5-methylthiazol-2-yl)-N—((R)-1-(2-(trifluoromethyl)pyrimidin-5-yl)ethyl)benzamide]",solubility at 4 h,"[5]; FaSSIF, 37 °C, pH 6.5, fassif, thermodynamic from solid, FaSSIF, 4 h, read-out: S: solubility",8 µg/mL
same,Crystalline form change,"[5]; FaSSIF, 1 h",No
same,S: solubility,"[5]; FaSSIF, 1 h",10 µg/mL
same,pH of filtrate,"[5]; FaSSIF, 1 h",6.5
same,Crystalline form change,"[5]; FaSSIF, 4 h",No
same,pH of filtrate,"[5]; FaSSIF, 4 h",6.5
same,Crystalline form change,"[5]; FaSSIF, 24 h",No
same,S: solubility,"[5]; FaSSIF, 24 h",9 µg/mL
same,pH of filtrate,"[5]; FaSSIF, 24 h",6.5
same,solubility at 24 h,"[5]; FeSSIF, 37 °C, pH 5, fessif, thermodynamic from solid, FeSSIF, 24 h, read-out: S: solubility",25 µg/mL
same,Crystalline form change,"[5]; FeSSIF, 1 h",No
same,S: solubility,"[5]; FeSSIF, 1 h",23 µg/mL
same,pH of filtrate,"[5]; FeSSIF, 1 h",5.0
same,Crystalline form change,"[5]; FeSSIF, 4 h",No
same,S: solubility,"[5]; FeSSIF, 4 h",23 µg/mL
same,pH of filtrate,"[5]; FeSSIF, 4 h",5.0
same,Crystalline form change,"[5]; FeSSIF, 24 h",No
same,pH of filtrate,"[5]; FeSSIF, 24 h",5.0
same,Crystalline form change,"[5]; H2O, 1 h",No
same,S: solubility,"[5]; H2O, 1 h",3 µg/mL
same,pH of filtrate,"[5]; H2O, 1 h",8.8
same,Crystalline form change,"[5]; H2O, 4 h",No
same,S: solubility,"[5]; H2O, 4 h",3 µg/mL
same,pH of filtrate,"[5]; H2O, 4 h",8.9
same,Crystalline form change,"[5]; H2O, 24 h",No
same,S: solubility,"[5]; H2O, 24 h",3 µg/mL
same,pH of filtrate,"[5]; H2O, 24 h",9.0
same,crystalline form changes in the dynamic solubility tests,"[5]; H2O, SGF, FaSSIF, FeSSIF",did not undergo any crystalline form changes
same,Crystalline form change,"[5]; SGF, 1 h",No
same,S: solubility,"[5]; SGF, 1 h",13 µg/mL
same,pH of filtrate,"[5]; SGF, 1 h",1.8
same,Crystalline form change,"[5]; SGF, 4 h",No
same,S: solubility,"[5]; SGF, 4 h",13 µg/mL
same,pH of filtrate,"[5]; SGF, 4 h",1.8
same,Crystalline form change,"[5]; SGF, 24 h",No
same,S: solubility,"[5]; SGF, 24 h",12 µg/mL
same,pH of filtrate,"[5]; SGF, 24 h",1.8
same,crystalline form after DVS test,"[6]; 0% RH to 95% RH to 0% RH, 25° C.",remained unchanged
same,vapor sorption,[6]; 25° C./80% RH,about 0.91%
same,hygroscopicity,"[6]; DVS, 25° C./80% RH",slight hygroscopicity
same,HPLC Purity (area %),[7]; [11],99.33 area %
same,HPLC purity Relative to starting (%),[7]; [11],99.96%
same,HPLC Purity (area %),[7]; [12],99.38 area %
same,HPLC purity Relative to starting (%),[7]; [12],100.01%
same,HPLC Purity (area %),[7]; [13],99.43 area %
same,HPLC purity Relative to starting (%),[7]; [13],100.06%
same,HPLC Purity (area %),[7]; [14],99.51 area %
same,HPLC purity Relative to starting (%),[7]; [14],100.14%
same,change of HPLC purity after placement under the corresponding conditions,"[7]; 60° C. sealed 1 day, 25° C./60% RH and 40° C./75% RH uncovered 1 week/1 month",no significant change
same,HPLC Purity (area %),"[7]; 60° C./sealed, 1 day",99.44 area %
same,HPLC purity Relative to starting (%),"[7]; 60° C./sealed, 1 day",100.07%
same,HPLC Purity (area %),[7]; Starting,99.37 area %
same,thermodynamic stability of the crystalline form,[8]; room temperature and 50° C.,thermodynamically stable crystalline form
Cc1cnc(-c2cc(O[C@@H](C)[C@@H](C)O)cc(C(=O)N[C@H](C)c3cnc(C(F)(F)F)nc3)c2F)s1 [Free base crystalline forms A + B],Resulting crystalline form after competitive suspension,"[8]; Toluene, 50° C., 2 d",Free base crystalline form A
same,Resulting crystalline form after competitive suspension,"[8]; Toluene, RT, 5 d",Free base crystalline form A
same,Resulting crystalline form after competitive suspension,"[8]; n-Heptane, 50° C., 2 d",Free base crystalline form A
same,Resulting crystalline form after competitive suspension,"[8]; n-Heptane, RT, 42 d",Free base crystalline form A
